The test system of data set [1] is H4IIE cells. Nature of the data set: Intracellular total glutathione (GSH). The note with it: rat, 24 h. Type of data set: cell-based, rat. A digest of the protocol:
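Rat hepatoma H4IIE cells were exposed to compound in dosing solutions made in complete culture medium, then harvested for biochemical measurement of intracellular total glutathione as an oxidative-stress marker. Values are exposure-group means, n=3-7.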

Data set [2] has as its system H4IIE cells. Nature of the data set: MemTox membrane leakage (AK / α-GST). The class given is cell-based, rat. Conditions: rat, 24 h. In short, it runs like this:
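H4IIE rat hepatoma cells were exposed to compound diluted in complete culture medium. Leakage of adenylate kinase (luminescence) and/or α-GST (ELISA, 450/650 nm) was measured in the medium collected at the end of exposure. Percent live cells was computed relative to 1 mM digitonin-treated maximum release, as means of n=3-7.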

Data set [3] relates to H4IIE cells. The data set is described as follows: Cell number (propidium iodide). Type of data set: cell-based, rat. Conditions: rat, 24 h. In short, it runs like this: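 Rat hepatoma H4IIE cells exposed to compound in complete medium, then lysed with Triton X-100 containing propidium iodide; fluorescence read at 540/610 nm. Blank-subtracted RFU expressed as percent of untreated control cells, means of n=3-7.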

In data set [4] the test system is C32 cells. The data set is described as follows: Predicted Ctox from Tox-Panel. Type of data set: cell-based, human. The note with it: C32, 24 HR. Here is the method:
Studies such as these indicate that a preferred concentration for setting Ctox is the highest concentration at which there is no observed effect on any of the indicators being measured in the cluster analysis, especially a 24-hour cluster analysis. […] It will be apparent that 24 hour assays are more time-effective, and consequently, the 24 hour NOEL/Ctox represents a preferred data point to select as Ctox in a CATS assay. It will also be apparent that, with further time studies, it may be possible to select an equally suitable Ctox at other CATS assay time points (e.g., between 24 and 72 hours, or less than 24 hours).
In certain embodiments, the predicting comprises performing concentration response analyses of measurements from at least three separate assays that are employed in the cluster analysis. For example, in the cell health cluster, such predicting will involve monitoring the concentration response effect of the compound on a first health indicator which monitors cellular replication, a second cell health indicator which monitors mitochondrial function, and a third cell health indicator which monitors membrane integrity. Of course, it is understood that fourth, fifth, sixth or more cell health indicators also may be employed. From these concentration response analyses, the highest concentration of the chemical compound at which a measurable toxic effect of the chemical compound is not observable, i.e. NOEL, is determined and the Ctox is identified as the concentration that correlates to the NOEL. In choosing the concentrations of the compound for analysis, one of skill in the art should devise a dose response regimen which is selected to provide an indication of cell health at concentrations of at least two concentration values higher than the Ctox concentration.
The results are summarized in Tables 14-17 and in FIGS. 83-102. Table 14 compares the test compound TC50 values for each assay endpoint. Test compounds are rank-ordered from most to least toxic based on their TC50 values and overall shape of the response curves. The Ctox value, or estimated sustained blood concentration where toxicity would first be expected to occur in a rat 14-day repeated dose study, is also included in this table. Negative and positive controls are included with every run. Assay response is continually monitored to assure reliable results. […] Table 15 summarizes oxidative stress and apoptosis data, Table 16 summarizes the solubility data, and Table 17 provides information on interaction with PgP.
The Ctox value was developed using 24 hr in vitro (H4IIE) toxicity data and was validated by retrospectively evaluating compounds across different classes of drugs in 14-day rat studies in which compounds were administered on a daily basis and pharmacokinetic data was available. […] Thus, Ctox values are only determined for the 24 hr in vitro results. In this example, Ctox values could not be estimated due to low toxicity in most of the cell lines.

In general, CC50 refers to the concentration giving 50% cytotoxicity. Consider `COc1cccc2c1C(=O)c1c(O)c3c(c(O)c1C2=O)C[C@@](O)(C(=O)CO)C[C@@H]3O[C@H]1C[C@H](N)[C@H](O)[C@H](C)O1` [ADRIAMYCIN, Adriamycin], for which the CC50 in data set [1] came to 48 µM; in data set [3] it was 9 µM. Moreover, in data set [2], the “less toxic in liver cells than in the cardiomyocytes (TC50 for membrane integrity)” value is given as “approximately 5 fold”.
Turning to `CC[C@@]1(O)C(=O)OCc2c1cc1n(c2=O)Cc2cc3ccccc3nc2-1` [CAMPTOTHECIN, Camptothecin], in data set [4], the “Predicted Ctox” value was 0.1 µM.

Values taken from patent US7615361B2, “Toxicity screening methods” (Ceetox, Inc., priority 2006, dated 2009).
